Legend:
[1] = Inhibition of alpha-amylase at 1 mM after 15 mins by dinitrosalicylic acid method relative to control
[2] = Inhibition of advanced glycation end product formation assessed as CML level at 1 mM after 7 days in 0.1 M phosphate buffer at pH 7.4 by ELISA relative to control; assay type: physicochemical; conditions: pH 7.4, 168 h, 1000 µM

| inhibition [1] [%] | inhibition (INH) [2] [%] | SMILES |
| --- | --- | --- |
| 97.5 | 86.7 | Oc1cc(O)cc(Oc2c(O)cc(O)c3c2Oc2c(O)cc(Oc4c(O)cc(Oc5c(O)cc(O)c6c5Oc5c(O)cc(O)cc5O6)cc4O)cc2O3)c1 [DIECKOL] |
| 87.5 | 96.2 | Oc1cc(O)cc(Oc2c(O)cc(O)c3c2Oc2c(O)cc(O)cc2O3)c1 [ECKOL] |

| SMILES | inhibition [1] [%] | inhibition (INH) [2] [%] |
| --- | --- | --- |
| N=C(N)NN [PIMAGEDINE] |  | 76 |
